This experiment addresses wild type c-kit (Homo sapiens (Human), UniProt P10721). In words: PathScan phospho c-kit (Tyr719) sandwich ELISA in SCF-stimulated M-07e cells (pKIT assay). Type of experiment: cell-based. The settings on record: ELISA assay (values not marked *). From the text: The ability of compounds of the disclosure (described herein as test compounds) to inhibit autophosphorylation of wild type c-kit was measures using either a PathScan phospho c-kit (Tyr719) sandwich ELISA (CST #7298) or a Phospho c-Kit (Tyr721) Assay Whole Cell Lysate Kit (MSD: 515DPD/catalog number K15119D-2).
For the PathScan phospho c-kit (Tyr719) sandwich ELISA: M-07e cells were resuspended at 2×10^6 cells/mL in phenol red free, serum-free, GM-CSF-free Iscove's Modified Dulbecco's Medium (IMDM) media with 1% Penicillin-Streptomycin. The cells were then dispensed into the wells of a U-bottom, 96-well plate at 50 uL per well using a multichannel pipet. The plate was allowed to incubate at 37° C. in a humidified tissue culture incubator for 4 hours.
After 4 hours of incubation, each well was dosed with 6.25 uL of test compound at a final DMSO concentration of 0.25% for 60 min at 37° C. to generate an 8-point dose concentration series of test compounds in duplicate. Cells were then incubated for 1 hour at 37° C. in a humidified tissue culture incubator. Next, human SCF at 500 ng/mL was added to the appropriate wells at 6.25 uL/well and the plate was shaken at 450 rpm at room temperature for 10 minutes. AlphaLISA 5× Lysis Buffer supplemented with 1× protease and phosphatase inhibitor was then added at 16 uL/well. The plate was sealed with an adherent cover and shaken at 4° C. at 600 rpm for 30 minutes. After this period of lysis, the plate was stored at −80° C.
When the 96-well plate containing M07e lysates was ready to be processed, the plate was brought to room temperature and 40 μl from each well was transferred to the wells of a PathScan Phospho-c-Kit (Tyr719) Sandwich ELISA plate (CST, Catalog #7298). The ELISA plate was sealed with an adherent cover and incubated for 2 hours at 37° C. Next, the wells were washed 4 times with the provided 1× Wash Buffer, and 100 uL/well of reconstituted Detection Antibody was added to each well, the plate sealed with an adherent cover, and incubated at 37° C. for 1 hour. The wash procedure was repeated and 100 uL/well of reconstituted HRP-Linked secondary antibody was added. The plate was sealed with an adherent cover and incubated at 37° C. for 1 hour. The wash procedure was repeated and 100 uL/well of TMB Substrate was added. The plate was incubated for 10 minutes at room temperature or until the positive reaction elicited a blue color in the appropriate wells. 100 uL/well of STOP solution was added and shaken gently for a few seconds a microplate reader or conventional spectrophotometer e.g., a Perkin Elmer Envision multimode plate reader, part #2105-0010.
An IC50 was calculated using a 4-parameter logistic nonlinear regression.
Sequence of wild type c-kit (P10721 26-976): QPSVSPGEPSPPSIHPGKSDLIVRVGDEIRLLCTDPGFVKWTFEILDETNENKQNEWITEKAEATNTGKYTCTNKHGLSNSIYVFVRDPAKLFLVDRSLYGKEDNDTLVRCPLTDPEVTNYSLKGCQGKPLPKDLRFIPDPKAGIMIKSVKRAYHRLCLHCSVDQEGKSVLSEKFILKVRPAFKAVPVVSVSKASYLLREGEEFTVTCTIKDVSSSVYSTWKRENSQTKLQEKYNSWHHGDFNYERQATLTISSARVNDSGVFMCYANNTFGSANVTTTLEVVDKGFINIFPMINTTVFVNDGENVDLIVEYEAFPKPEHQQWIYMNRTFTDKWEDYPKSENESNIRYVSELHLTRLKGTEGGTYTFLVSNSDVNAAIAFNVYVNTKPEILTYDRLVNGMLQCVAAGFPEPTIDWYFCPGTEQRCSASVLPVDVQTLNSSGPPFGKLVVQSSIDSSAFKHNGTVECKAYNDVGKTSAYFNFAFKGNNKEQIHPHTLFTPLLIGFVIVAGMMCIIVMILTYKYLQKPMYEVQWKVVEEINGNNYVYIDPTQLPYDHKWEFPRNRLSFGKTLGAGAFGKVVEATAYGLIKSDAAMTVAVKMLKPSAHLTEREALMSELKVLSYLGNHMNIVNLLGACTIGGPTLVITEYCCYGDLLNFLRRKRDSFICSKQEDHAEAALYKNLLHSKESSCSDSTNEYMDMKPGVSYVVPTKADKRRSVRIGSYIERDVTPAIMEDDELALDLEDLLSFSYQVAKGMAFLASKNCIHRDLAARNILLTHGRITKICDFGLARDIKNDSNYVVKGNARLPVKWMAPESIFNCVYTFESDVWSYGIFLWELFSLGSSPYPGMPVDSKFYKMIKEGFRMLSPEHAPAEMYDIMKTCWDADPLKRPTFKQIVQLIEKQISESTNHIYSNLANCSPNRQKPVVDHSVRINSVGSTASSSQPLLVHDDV
`Cc1cc(C)c(-c2nnn(CC34COC(C3)C4)n2)cc1NC(=O)c1cnn2ccccc12` [Example 20, N-(5-(2-((2-oxabicyclo[2.1.1]hexan-4-yl)methyl)-2H-tetrazol-5-yl)-2,4-dimethylphenyl)pyrazolo[1,5-a]pyridine-3-carboxamide]: it took 50.9 nM to reach half-maximal inhibition (IC50).

For `Cc1cc(F)c(-c2nnn(C3CC3)n2)cc1NC(=O)c1cnn2ccc(-c3c(C)nn(C[C@H](C)O)c3C)cc12` [Example 254, (S)-N-(5-(2-cyclopropyl-2H-tetrazol-5-yl)-4-fluoro-2-methylphenyl)-5-(1-(2-hydroxypropyl)-3,5-dimethyl-1H-pyrazol-4-yl)pyrazolo[1,5-a]pyridine-3-carboxamide], the concentration for half-maximal inhibition (IC50) stood at 0.4 nM.

The molecule `[2H]C([2H])([2H])OCCNc1ccn2ncc(C(=O)Nc3cc(-c4nnn(C5CN(C(=O)OC)C5)n4)ccc3C)c2c1` [Example 100, methyl 3-(5-(3-(5-((2-(methoxy-d3)ethyl)amino)pyrazolo[1,5-a]pyridine-3-carboxamido)-4-methylphenyl)-2H-tetrazol-2-yl)azetidine-1-carboxylate] returned an IC50 of 33.8 nM.

`Cc1ccc(-c2nnn(C)n2)cc1NC(=O)c1cnn2cc(-c3cnn(CC(C)(C)O)c3)cc(F)c12` [Example 214, 4-fluoro-6-(1-(2-hydroxy-2-methylpropyl)-1H-pyrazol-4-yl)-N-(2-methyl-5-(2-methyl-2H-tetrazol-5-yl)phenyl)pyrazolo[1,5-a]pyridine-3-carboxamide]: 2.7 nM corresponded to half-maximal inhibition (IC50).

In turn, `COC(=O)N1CC(n2nnc(-c3ccc(C)c(NC(=O)c4cnn5ccc(N[C@H]6CCOC6)cc45)c3)n2)C1` [Example 136, methyl (S)-3-(5-(4-methyl-3-(5-((tetrahydrofuran-3-yl)amino)pyrazolo[1,5-a]pyridine-3-carboxamido)phenyl)-2H-tetrazol-2-yl)azetidine-1-carboxylate] had an IC50 of 76.2 nM.

As for `Cc1ccc(-c2nnn(C3CN(S(=O)(=O)C4CC4)C3)n2)cc1NC(=O)c1cnn2ccccc12` [Example 179, N-(5-(2-(1-(cyclopropylsulfonyl)azetidin-3-yl)-2H-tetrazol-5-yl)-2-methylphenyl)pyrazolo[1,5-a]pyridine-3-carboxamide], the IC50 was 4.9 nM.

In turn, `Cc1cc(F)c(-c2nnn(C3CC3)n2)cc1NC(=O)c1cnn2ccc(-c3cn(C[C@@H](O)C(C)(C)O)nc3C3CC3)cc12` [Example 259, (R)-5-(3-cyclopropyl-1-(2,3-dihydroxy-3-methylbutyl)-1H-pyrazol-4-yl)-N-(5-(2-cyclopropyl-2H-tetrazol-5-yl)-4-fluoro-2-methylphenyl)pyrazolo[1,5-a]pyridine-3-carboxamide] yielded an IC50 of 0.4 nM.

`Cc1ccc(-c2nnn(C3CC3)n2)cc1NC(=O)c1cnn2ccc(-c3cnn(CCN4CCN(C)CC4)c3)cc12` [Example 219, N-(5-(2-cyclopropyl-2H-tetrazol-5-yl)-2-methylphenyl)-5-(1-(2-(4-methylpiperazin-1-yl)ethyl)-1H-pyrazol-4-yl)pyrazolo[1,5-a]pyridine-3-carboxamide] showed an IC50 of 1.1 nM.

`Cc1ccc(-c2nnn(C)n2)cc1NC(=O)c1cnn2ccccc12` [Example 2, N-(2-methyl-5-(2-methyl-2H-tetrazol-5-yl)phenyl)pyrazolo[1,5-a]pyridine-3-carboxamide]: the IC50 was 4.8 nM.

Take `COCCNc1ccn2ncc(C(=O)Nc3cc(-c4nnn(C[C@@H]5CC5(F)F)n4)ccc3C)c2c1` (single isomer, unassigned) [Example 123, (S)-N-(5-(2-((2,2-difluorocyclopropyl)methyl)-2H-tetrazol-5-yl)-2-methylphenyl)-5-((2-methoxyethyl)amino)pyrazolo[1,5-a]pyridine-3-carboxamide or (R)-N-(5-(2-((2,2-difluorocyclopropyl)methyl)-2H-tetrazol-5-yl)-2-methylphenyl)-5-((2-methoxyethyl)amino)pyrazolo[1,5-a]pyridine-3-carboxamide]: the IC50 is 3.4 nM.

Turning to `Cc1cc(C2CC2)c(-c2nnn(C3CC(F)(F)C3)n2)cc1NC(=O)c1cnn2ccc(N3CCOCC3)cc12` [Example 166, N-(4-cyclopropyl-5-(2-(3,3-difluorocyclobutyl)-2H-tetrazol-5-yl)-2-methylphenyl)-5-morpholinopyrazolo[1,5-a]pyridine-3-carboxamide], the midpoint of inhibition, the IC50, lay at 37.7 nM.

For `COCCOC[C@@H](O)Cn1cc(-c2ccn3ncc(C(=O)Nc4cc(-c5nnn(C6CC6)n5)c(F)cc4Cl)c3c2)c(C)n1` [Example 285, (S)—N-(2-chloro-5-(2-cyclopropyl-2H-tetrazol-5-yl)-4-fluorophenyl)-5-(1-(2-hydroxy-3-(2-methoxyethoxy)propyl)-3-methyl-1H-pyrazol-4-yl)pyrazolo[1,5-a]pyridine-3-carboxamide], the IC50 was found to be 1 nM.

For `O=C(Nc1cc(-c2nnn(CC34COC(C3)C4)n2)ccc1Cl)c1cnn2ccccc12` [Example 18, N-(5-(2-((2-oxabicyclo[2.1.1]hexan-4-yl)methyl)-2H-tetrazol-5-yl)-2-chlorophenyl)pyrazolo[1,5-a]pyridine-3-carboxamide], inhibition was half-maximal at 29.6 nM (IC50).

In turn, `CCn1nnc(-c2cc(NC(=O)c3cnn4ccc(-c5cn(C[C@H](O)COC)nc5C)cc34)c(Cl)cc2F)n1` [Example 282, (S)—N-(2-chloro-5-(2-ethyl-2H-tetrazol-5-yl)-4-fluorophenyl)-5-(1-(2-hydroxy-3-methoxypropyl)-3-methyl-1H-pyrazol-4-yl)pyrazolo[1,5-a]pyridine-3-carboxamide] yielded an IC50 of 0.2 nM.

On to `Cc1ccc(-c2nnn(C3CC(F)(F)C3)n2)cc1NC(=O)c1cnn2ccc(N3CC[C@@](C)(O)C3)cc12` (single isomer, unassigned) [Example 86, (S)—N-(5-(2-(3,3-difluorocyclobutyl)-2H-tetrazol-5-yl)-2-methylphenyl)-5-(3-hydroxy-3-methylpyrrolidin-1-yl)pyrazolo[1,5-a]pyridine-3-carboxamide or (R)—N-(5-(2-(3,3-difluorocyclobutyl)-2H-tetrazol-5-yl)-2-methylphenyl)-5-(3-hydroxy-3-methylpyrrolidin-1-yl)pyrazolo[1,5-a]pyridine-3-carboxamide], for which the IC50 amounted to 8.6 nM.

As to `Cc1nn([C@@H](C)[C@H](C)O)cc1-c1ccn2ncc(C(=O)Nc3cc(-c4nnn(C5CC5)n4)c(F)cc3Cl)c2c1` (single isomer, unassigned) [Example 288, N-(2-chloro-5-(2-cyclopropyl-2H-tetrazol-5-yl)-4-fluorophenyl)-5-(1-((2S,3S)-3-hydroxybutan-2-yl)-3-methyl-1H-pyrazol-4-yl)pyrazolo[1,5-a]pyridine-3-carboxamide or N-(2-chloro-5-(2-cyclopropyl-2H-tetrazol-5-yl)-4-fluorophenyl)-5-(1-((2R,3R)-3-hydroxybutan-2-yl)-3-methyl-1H-pyrazol-4-yl)pyrazolo[1,5-a]pyridine-3-carboxamide], half-maximal inhibition (IC50) required 0.4 nM.

`Cc1ccc(-c2nnn(C3CN(S(=O)(=O)C4CCOC4)C3)n2)cc1NC(=O)c1cnn2ccccc12` (centres unmarked) [Example 175, N-(2-methyl-5-(2-(1-((tetrahydrofuran-3-yl)sulfonyl)azetidin-3-yl)-2H-tetrazol-5-yl)phenyl)pyrazolo[1,5-a]pyridine-3-carboxamide] gave an IC50 of 77.8 nM.

As for `COC(=O)N1CC(n2nnc(-c3ccc(C)c(NC(=O)c4cnn5ccc(N6CCN(CC(F)F)CC6)cc45)c3)n2)C1` [Example 73, methyl 3-(5-(3-(5-(4-(2,2-difluoroethyl)piperazin-1-yl)pyrazolo[1,5-a]pyridine-3-carboxamido)-4-methylphenyl)-2H-tetrazol-2-yl)azetidine-1-carboxylate], the midpoint of inhibition, the IC50, lay at 46.6 nM.

`Cc1ccc(-c2nnn([C@H]3C[C@H](C(F)(F)F)C3)n2)cc1NC(=O)c1cnn2ccc(NCCO)cc12` [Example 121, 5-((2-hydroxyethyl)amino)-N-(2-methyl-5-(2-((1r,3r)-3-(trifluoromethyl)cyclobutyl)-2H-tetrazol-5-yl)phenyl)pyrazolo[1,5-a]pyridine-3-carboxamide or 5-((2-hydroxyethyl)amino)-N-(2-methyl-5-(2-((1s,3s)-3-(trifluoromethyl)cyclobutyl)-2H-tetrazol-5-yl)phenyl)pyrazolo[1,5-a]pyridine-3-carboxamide] yielded an IC50 of 11.9 nM.

In the case of `Cc1ccc(-c2nnn(CCOC(C)C)n2)cc1NC(=O)c1cnn2ccccc12` [Example 11, N-(5-(2-(2-isopropoxyethyl)-2H-tetrazol-5-yl)-2-methylphenyl)pyrazolo[1,5-a]pyridine-3-carboxamide], the IC50 was 2.5 nM.

For orientation: IC50 means the point on the concentration scale where inhibition reaches its midpoint. Read a low IC50 as higher potency.
